# In patent publication US9434711B2 (Janssen Pharmaceutica, NV, priority 2007, dated 2016):
# pIC50: −log10 of the molar value.
# Target: canine TRPM8 (Canis lupus familiaris, UniProt Q1A7N1)
# Assay: In Vitro Canine TRPM8 Functional Assay (Ca2+ fluorescence, icilin activation)
# Type: cell-based
# Details: for pIC50: HEK293 cells stably expressing canine TRPM8, icilin activation, eight-point dose-response, read-out: IC50; for inhibition at 0.2 µM: compound at 0.2 μM, canine TRPM8, icilin activation, read-out: % Inh @ 0.2
# In short: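 Readout is the intracellular Ca2+ fluorescence change, measured by FLIPR or FDSS, in HEK293 cells stably expressing canine TRPM8. Potency (EC50 or IC50) is fitted from eight concentrations averaged over quadruplicate wells.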
# canine TRPM8, sequence (Q1A7N1 1-1104): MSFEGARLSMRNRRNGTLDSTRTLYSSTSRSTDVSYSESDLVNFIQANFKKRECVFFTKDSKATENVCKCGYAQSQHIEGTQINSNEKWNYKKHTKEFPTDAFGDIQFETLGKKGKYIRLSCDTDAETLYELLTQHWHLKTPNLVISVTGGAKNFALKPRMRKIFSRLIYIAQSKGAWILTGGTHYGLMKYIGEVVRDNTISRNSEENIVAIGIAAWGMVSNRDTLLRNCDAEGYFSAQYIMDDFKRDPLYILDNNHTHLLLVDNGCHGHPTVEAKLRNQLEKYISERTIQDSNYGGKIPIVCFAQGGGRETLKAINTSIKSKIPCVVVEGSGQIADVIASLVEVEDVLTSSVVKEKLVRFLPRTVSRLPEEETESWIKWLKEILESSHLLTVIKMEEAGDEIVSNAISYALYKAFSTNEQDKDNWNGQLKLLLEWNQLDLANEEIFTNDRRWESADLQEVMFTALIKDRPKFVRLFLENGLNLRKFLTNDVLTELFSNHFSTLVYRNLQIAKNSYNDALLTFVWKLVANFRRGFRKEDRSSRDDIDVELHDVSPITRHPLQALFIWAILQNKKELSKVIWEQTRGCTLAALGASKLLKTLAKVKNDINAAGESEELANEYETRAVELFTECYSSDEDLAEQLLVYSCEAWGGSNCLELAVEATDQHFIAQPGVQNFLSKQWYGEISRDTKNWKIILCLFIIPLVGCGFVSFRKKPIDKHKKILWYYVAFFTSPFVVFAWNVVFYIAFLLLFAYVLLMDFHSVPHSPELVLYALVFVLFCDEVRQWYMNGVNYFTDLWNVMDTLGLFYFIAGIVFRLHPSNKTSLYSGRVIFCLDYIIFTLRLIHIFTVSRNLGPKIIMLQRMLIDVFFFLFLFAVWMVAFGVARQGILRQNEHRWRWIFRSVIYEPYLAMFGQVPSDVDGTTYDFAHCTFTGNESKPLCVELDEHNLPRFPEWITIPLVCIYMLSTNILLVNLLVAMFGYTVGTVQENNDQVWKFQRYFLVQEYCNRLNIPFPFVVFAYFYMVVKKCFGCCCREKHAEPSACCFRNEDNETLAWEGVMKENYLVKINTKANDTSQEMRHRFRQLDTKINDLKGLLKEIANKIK
Structure (SMILES),pIC50,inhibition at 0.2 µM
"CS(=O)(=O)Nc1c(Cl)cc(S(=O)(=O)N(CCC(F)(F)F)c2sc3ccccc3c2Cl)cc1Cl [Compound 681, 3,5-Dichloro-N-(3-chloro-benzo[b]thiophen-2-yl)-4-methanesulfonylamino-N-(3,3,3-trifluoro-propyl)-benzenesulfonamide]",7.17,93.3%
"CS(=O)(=O)Nc1c(Cl)cc(S(=O)(=O)N(CCCCC(F)(F)F)c2sc3ccccc3c2Cl)cc1Cl [Compound 682, 3,5-Dichloro-N-(3-chloro-benzo[b]thiophen-2-yl)-4-methanesulfonylamino-N-(5,5,5-trifluoro-pentyl)-benzenesulfonamide]",7.50,101%
"CS(=O)(=O)Nc1ccc(S(=O)(=O)N(CCC(F)(F)F)c2sc3ccccc3c2Br)cc1Br [Compound 683, 3-Bromo-N-(3-bromo-benzo[b]thiophen-2-yl)-4-methanesulfonylamino-N-(3,3,3-trifluoro-propyl)-benzenesulfonamide]",7.59,101%
"O=c1[nH]c(-c2ccc(S(=O)(=O)N(CCC(F)(F)F)c3cc4ccccc4s3)cc2)ns1 [Compound 684, N-(Benzo[b]thiophen-2-yl)-N-(3,3,3-trifluoro-propyl)-4-(5-oxo-4,5-dihydro-[1,2,4]thiadiazol-3-yl)-benzenesulfonamide]",6.84,73.1%
"O=C(O)c1ccc(S(=O)(=O)N(CCCCC(F)(F)F)c2cc3ccccc3s2)c(F)c1 [Compound 685, N-(Benzo[b]thiophen-2-yl)-N-(5,5,5-trifluoro-pentyl)-2-fluoro-4-carboxy-benzenesulfonamide]",7.92,102%
"O=c1[nH]c(-c2ccc(S(=O)(=O)N(CCCCC(F)(F)F)c3cc4ccccc4s3)cc2)ns1 [Compound 687, N-(Benzo[b]thiophen-2-yl)-N-(5,5,5-trifluoro-pentyl)-4-(5-oxo-4,5-dihydro-[1,2,4]thiadiazol-3-yl)-benzenesulfonamide]",7.24,74.5%
"CNc1ccc(S(=O)(=O)N(CCC2CC2)c2cc3ccccc3s2)cc1 [Compound 688, N-(Benzo[b]thiophen-2-yl)-N-(2-cyclopropyl-ethyl)-4-methylamino-benzenesulfonamide]",7.22,99%
"CN(C)c1ccc(S(=O)(=O)N(CCC2CC2)c2cc3ccccc3s2)cc1 [Compound 689, N-(Benzo[b]thiophen-2-yl)-N-(2-cyclopropyl-ethyl)-4-dimethylamino-benzenesulfonamide]",7.28,86%
"CNc1ccc(S(=O)(=O)N(CCC2CC2)c2sc3ccccc3c2Cl)cc1 [Compound 690, N-(3-Chloro-benzo[b]thiophen-2-yl)-N-(2-cyclopropyl-ethyl)-4-methylamino-benzenesulfonamide]",7.79,101%
"CNc1ccc(S(=O)(=O)N(CCC2CC2)c2sc3ccccc3c2Cl)cc1Cl [Compound 691, 3-Chloro-N-(3-chloro-benzo[b]thiophen-2-yl)-N-(2-cyclopropyl-ethyl)-4-methylamino-benzenesulfonamide]",7.80,102%
"CNc1ccc(S(=O)(=O)N(CCC2CC2)c2sc3ccccc3c2Br)cc1Br [Compound 692, 3-Bromo-N-(3-bromo-benzo[b]thiophen-2-yl)-N-(2-cyclopropyl-ethyl)-4-methylamino-benzenesulfonamide]",8.14,101%
"CNc1ccc(S(=O)(=O)N(CCC2CC2)c2sc3ccccc3c2Br)cc1 [Compound 693, N-(3-Bromo-benzo[b]thiophen-2-yl)-N-(2-cyclopropyl-ethyl)-4-methylamino-benzenesulfonamide]",7.60,103%
"Cc1c(N(Cc2ccc(OC(F)(F)F)cc2)S(=O)(=O)c2ccc(-n3ccnc3CN(C)C)cc2)sc2ccccc12 [Compound 701, 4-(2-Dimethylaminomethyl-imidazol-1-yl)-N-(3-methyl-benzo[b]thiophen-2-yl)-N-(4-trifluoromethoxy-benzyl)-benzenesulfonamide]",7.49,95%

# Next, values leading:
pIC50,inhibition at 0.2 µM,Structure (SMILES)
8.33,105%,"O=C(O)c1ccc(S(=O)(=O)N(Cc2ccc(F)c(C(F)(F)F)c2)c2cc3ccccc3s2)c(F)c1 [Compound 686, N-(Benzo[b]thiophen-2-yl)-N-(4-fluoro-3-trifluoromethyl-benzyl)-2-fluoro-4-carboxy-benzenesulfonamide]"
7.77,101%,"O=C(Nc1ccc(S(=O)(=O)N(Cc2ccc(F)c(C(F)(F)F)c2)c2sc3ccccc3c2Br)cc1)C(F)(F)F [Compound 695, N-(3-Bromo-benzo[b]thiophen-2-yl)-N-(4-fluoro-3-trifluoromethyl-benzyl)-4-trifluoroacetamido-benzenesulfonamide]"
7.64,97%,"COC(=O)c1ccc(S(=O)(=O)N(Cc2ccc(F)c(C(F)(F)F)c2)c2sc3ccccc3c2C2CCC2)cc1 [Compound 696, N-(3-Cyclobutyl-benzo[b]thiophen-2-yl)-N-(4-fluoro-3-trifluoromethyl-benzyl)-4-carbomethoxy-benzenesulfonamide]"
7.19,92%,"O=S(=O)(CC(F)(F)F)N(Cc1ccc(F)c(C(F)(F)F)c1)c1cc2ccccc2s1 [Compound 697, N-(Benzo[b]thiophen-2-yl)-N-(4-fluoro-3-trifluoromethyl-benzyl)-2,2,2-trifluoro-ethanesulfonamide]"
8.70,102%,"O=C(O)c1ccc(S(=O)(=O)N(Cc2ccc(F)c(C(F)(F)F)c2)c2sc3ccccc3c2C2CCC2)cc1 [Compound 698, N-(3-Cyclobutyl-benzo[b]thiophen-2-yl)-N-(4-fluoro-3-trifluoromethyl-benzyl)-4-carboxy-benzenesulfonamide]"
8.22,103%,"Cc1c(N(Cc2ccc(F)c(C(F)(F)F)c2)S(=O)(=O)CCCO)sc2ccccc12 [Compound 699, N-(4-Fluoro-3-trifluoromethyl-benzyl)-N-(3-methyl-benzo[b]thiophen-2-yl)-3-hydroxy-propanesulfonamide]"
7.64,99%,"O=S(=O)(CC(F)(F)F)N(Cc1ccc(F)c(C(F)(F)F)c1)c1sc2ccccc2c1Br [Compound 702, N-(3-Bromo-benzo[b]thiophen-2-yl)-N-(4-fluoro-3-trifluoromethyl-benzyl)-2,2,2-trifluoro-ethanesulfonamide]"
7.29,80%,"O=S(=O)(CC(F)(F)F)N(Cc1ccc(F)c(C(F)(F)F)c1)c1sc2ccccc2c1Cl [Compound 703, N-(3-Chloro-benzo[b]thiophen-2-yl)-N-(4-fluoro-3-trifluoromethyl-benzyl)-2,2,2-trifluoro-ethanesulfonamide]"
,102%,"O=S(=O)(CC(F)(F)F)N(Cc1ccc(F)c(C(F)(F)F)c1)c1sc2ccccc2c1CO [Compound 704, N-(3-Hydroxymethyl-benzo[b]thiophen-2-yl)-N-(4-fluoro-3-trifluoromethyl-benzyl)-2,2,2-trifluoro-ethanesulfonamide]"
7.72,101%,"CNS(=O)(=O)N(Cc1ccc(F)c(C(F)(F)F)c1)c1sc2ccccc2c1Br [Compound 705, N-(3-Bromo-benzo[b]thiophen-2-yl)-N-(4-fluoro-3-trifluoromethyl-benzyl)-N′-methyl-sulfamide]"
